This note sets out measurements from US9394286B2, “Rock inhibitors” (Amakem NV, priority 2012, dated 2016).

For series [1], the target named is ROCK2 (Homo sapiens, UniProt O75116). Put plainly: Kinase inhibition (ROCKI & ROCKII), radiometric 33P-ATP assay. The format is biochemical. The following applies: ROCK 1 nM, 120 min at room temperature. The procedure: On-target activity against ROCK was measured in a biochemical assay, using the following reagents: Base Reaction buffer; 20 mM Hepes (pH 7.5), 10 mM MgCl2, 1 mM EGTA, 0.02% Brij35, 0.02 mg/ml BSA, 0.1 mM Na3VO4, 2 mM DTT, 1% DMSO. Required cofactors are added individually to each kinase reaction. The reaction procedure first involved the preparation of a peptide substrate in a freshly prepared reaction buffer. Required cofactors were then added to the substrate solution. ROCK (1 nM final concentration) was then delivered to the substrate solution. After gentle mix, DMSO solutions of the test compounds were added to the enzyme. Substrate mix ^33P-ATP (specific activity 0.01 μCi/μl final) was then delivered into the reaction mixture to initiate the reaction. The kinase reaction was incubated for 120 min. at room temperature. Reactions were then spotted onto P81 ion exchange paper (Whatman #3698-915). Filters were washed extensively in 0.1% Phosphoric acid. A radiometric count was then performed and IC50 values were subsequently determined.
ROCK2, sequence (O75116 whole entry, species assumed): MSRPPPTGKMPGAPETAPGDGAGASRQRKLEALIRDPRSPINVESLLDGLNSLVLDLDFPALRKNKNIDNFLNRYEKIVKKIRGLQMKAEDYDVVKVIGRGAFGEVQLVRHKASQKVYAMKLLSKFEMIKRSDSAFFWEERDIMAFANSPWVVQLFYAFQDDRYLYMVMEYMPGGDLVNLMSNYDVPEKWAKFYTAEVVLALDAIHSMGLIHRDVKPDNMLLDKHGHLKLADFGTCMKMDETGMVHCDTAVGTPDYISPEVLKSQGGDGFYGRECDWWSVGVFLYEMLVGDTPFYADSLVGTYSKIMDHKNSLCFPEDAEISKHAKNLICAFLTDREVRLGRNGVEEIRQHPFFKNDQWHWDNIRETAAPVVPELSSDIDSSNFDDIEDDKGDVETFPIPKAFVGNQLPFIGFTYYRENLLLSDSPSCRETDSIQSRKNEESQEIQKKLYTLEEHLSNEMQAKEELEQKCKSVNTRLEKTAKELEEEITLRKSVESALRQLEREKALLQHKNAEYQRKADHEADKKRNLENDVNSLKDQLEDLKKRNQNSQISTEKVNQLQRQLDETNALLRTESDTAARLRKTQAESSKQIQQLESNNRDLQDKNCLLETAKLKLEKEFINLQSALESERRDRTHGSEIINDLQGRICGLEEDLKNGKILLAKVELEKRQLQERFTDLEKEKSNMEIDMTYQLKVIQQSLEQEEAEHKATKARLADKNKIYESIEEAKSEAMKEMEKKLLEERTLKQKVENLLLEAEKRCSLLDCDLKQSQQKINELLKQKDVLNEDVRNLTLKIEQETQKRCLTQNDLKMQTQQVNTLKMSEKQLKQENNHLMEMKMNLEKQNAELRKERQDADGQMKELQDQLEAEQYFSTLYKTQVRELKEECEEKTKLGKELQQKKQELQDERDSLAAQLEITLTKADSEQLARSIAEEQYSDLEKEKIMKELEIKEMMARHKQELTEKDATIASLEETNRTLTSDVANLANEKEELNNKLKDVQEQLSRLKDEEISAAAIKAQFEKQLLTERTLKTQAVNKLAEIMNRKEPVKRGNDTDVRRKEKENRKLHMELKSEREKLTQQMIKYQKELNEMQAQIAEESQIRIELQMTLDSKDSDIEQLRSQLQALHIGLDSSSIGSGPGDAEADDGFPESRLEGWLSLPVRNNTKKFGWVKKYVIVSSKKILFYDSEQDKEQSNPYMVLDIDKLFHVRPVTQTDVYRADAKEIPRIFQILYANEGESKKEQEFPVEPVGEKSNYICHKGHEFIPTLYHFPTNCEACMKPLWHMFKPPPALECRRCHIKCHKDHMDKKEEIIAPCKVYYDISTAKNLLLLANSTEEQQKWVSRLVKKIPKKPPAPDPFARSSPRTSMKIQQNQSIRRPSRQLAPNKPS
The IC50 values obtained (in accordance with the protocol set forth above) are represented as follows: “+++” means IC50 below 0.1 μM, “++” means IC50 between 0.1 μM and 1 μM; “+” means IC50 between 1 and 10 μM and “ND” means “not determined yet”.

The test system of series [2] is MLC-T18/S19 phosphorylation. Put plainly: Myosin light chain phosphorylation assay (ELISA) in A7r5 cells. In kind it is cell-based, Rat. Conditions: for EC50: Rattus norvegicus, MLC-T18/S19 phosphorylation, A7r5 cells, serum-free medium. The procedure:
Rat smooth muscle cell line A7r5 is used. The endogenous expression of ROCK results in a constitutive phosphorylation of the regulatory myosin light chain at T18/S19. A7r5 cells were plated in DMEM supplemented with 10% FCS in multiwall cell culture plates. After serum starvation overnight, cells were incubated with compounds in serum-free medium.
Quantification of MLC-T18/S19 phosphorylation is assesses in 96 well-plates via ELISA using a phspho-MLC-T18/S19 specific antibody and a secondary detection antibody. Relative MLC phosphorylation is measured with respect to untreated cells (Positive control, 1.0) and cells treated with 100 μM Y-27632 (Negative control, 0.0). EC50 values were determined using GraphPad Prism 5.01 software using a nonlinear regression curve fit with variable hill slope.
The […] values obtained (in accordance with the protocols set forth above) are represented as follows: “+++” means EC50 below 0.3 μM, “++” means EC50 between 0.3 μM and 1 μM; “+” means EC50 between 1 and 10 μM and “−” means EC50>10 μM.
For orientation: An ELISA detects its analyte on a solid surface through an enzyme-linked reagent.

Series [3] can be described thus: Stability assay in rabbit aqueous humor. Conditions: 1 μM compound in rabbit aqueous humor, LC-MS/MS; read-out: t½ AH. The format is in vitro ADME. How it is done: Compounds are incubated at a concentration of 1 μM in rabbit aqueous humor (AH). Samples are taken at fixed time points and the remnant of compound is determined by LC-MS/MS after protein precipitation. Half life is expressed in minutes.

Series [4] in a line: Stability assay in human whole blood. The format is in vitro ADME. Conditions: 1 μM compound, LC-MS/MS, read-out: t½ human whole blood. The procedure: (§1) Compounds are incubated at a concentration of 1 μM in human or animal (rat, mice or rabbit) […] or whole blood. Samples are taken at fixed time points and the remnant of compound is determined by LC-MS/MS after protein precipitation. Half life is expressed in minutes.

A short description of series [5]: Stability assay in human plasma. The format is in vitro ADME. Conditions: 1 μM compound, LC-MS/MS, read-out: t½ human plasma. How it is done:
as §1

Where a name gives a salt, the structure may show the parent alone.

Turning to `COC(=O)c1ccc(C(=O)Nc2cccc(CN3CCC(Nc4cccc5cnccc45)C3)c2)cc1` (stereo not shown) [Compound 2, Methyl 4-((3-((3-(isoquinolin-5-ylamino)pyrrolidin-1-yl)methyl)phenyl)carbamoyl)benzoate], the IC50 in series [1] was under 100 nM. In series [2], this molecule returned an EC50 of under 300 nM.
Consider `COCCOC(=O)c1cccc(C(=O)Nc2cccc(CN3CCC(Nc4cccc5cnccc45)C3)c2)c1` (stereo not shown) [Compound 22], for which the half-maximal inhibitory concentration (IC50) in series [1] is under 100 nM. The EC50 in series [2] is under 300 nM. Besides, the results for the half-life at 1 μM in series [3], in series [4] and in series [5] were over 120 min, under 20 min and under 20 min, respectively.
`C[C@@H](N)[C@H]1CC[C@H](C(=O)Nc2ccncc2)CC1` [Compound Y-27632, Y-27632, reference compound] yielded an EC50 in series [2] of 300 to 1000 nM.
For the molecule `CCCOC(=O)c1cccc(C(=O)Nc2cccc(CN3CCC(Nc4cccc5cnccc45)CC3)c2)c1` [Compound 33], the IC50 in series [1] was under 100 nM. The values for the half-life at 1 μM in series [3] and in series [5] were over 120 min and under 20 min, respectively.
In series [1], `COC(=O)c1ccc(C(=O)Nc2cccc(CN3CCC(Nc4cccc5cnccc45)CC3)c2)cc1` [Compound 19] showed an IC50 of under 100 nM.
Turning to `COC(=O)c1cccc(C(=O)Nc2cc(CN3CCC(Nc4cccc5cnccc45)C3)ccc2C)c1` (stereo not shown) [Compound 7], the half-life at 1 μM was over 120 min in series [3] and 31 min in series [5].
Molecule `COC(=O)c1cccc(C(=O)Nc2cccc(CN3CCC(Nc4cccc5cnccc45)C3)c2)c1` (stereo not shown) [Compound 1, Methyl 3-((3-((3-(isoquinolin-5-ylamino)pyrrolidin-1-yl)methyl)phenyl)carbamoyl)benzoate] yielded an IC50 in series [1] of under 100 nM. Besides, the EC50 in series [2] is under 300 nM. The half-life at 1 μM in series [3] was over 120 min.
In turn, `COCCOC(=O)c1ccc(C(=O)Nc2cccc(CN3CCC(Nc4cccc5cnccc45)CC3)c2)cc1` [Compound 37] showed an IC50 in series [1] of under 100 nM.
Regarding `O=C(Nc1cccc(CNC2CCC(Nc3cccc4cnccc34)CC2)c1)c1cccc(C(=O)OCC2CCCO2)c1` (stereo not shown) [Compound 29], in series [1], the half-inhibitory concentration (IC50) is under 100 nM. Besides, the half-life at 1 μM in series [3] is over 120 min; in series [5] it was under 20 min.
Turning to `COC(=O)c1cccc(C(=O)Nc2cc(CN3CCCC(Nc4ccc5[nH]ncc5c4)C3)ccc2C)c1` (stereo not shown) [Compound 3, Methyl 3-((5-((3-((1H-indazol-5-yl)amino)piperidin-1-yl)methyl)-2-methylphenyl)carbamoyl)benzoate dihydrochloride], the half-life at 1 μM in series [3] is over 120 min; in series [5], 33 min.
Regarding `CCCOC(=O)c1ccc(C(=O)Nc2cccc(CN3CCC(Nc4cccc5cnccc45)CC3)c2)cc1` [Compound 36], the IC50 in series [1] was under 100 nM.
The same measure, in the same setting: as for `O=C(Nc1cccc(CN2CCC(Nc3cccc4cnccc34)CC2)c1)c1ccc(C(=O)OCC2CCCO2)cc1` (stereo not shown) [Compound 38], the figure is under 100 nM.
`COC(=O)c1cccc(C(=O)Nc2cccc(CNC3CCC(Nc4cccc5cnccc45)CC3)c2)c1` (stereo not shown) [Compound 16] displayed an IC50 in series [1] of under 100 nM. Also, the EC50 in series [2] was under 300 nM. Moreover, the half-life at 1 μM in series [5] is under 20 min.
On to `O=C(Nc1cccc(CN2CCC(Nc3cccc4cnccc34)CC2)c1)c1cccc(C(=O)OCC2CCCO2)c1` (stereo not shown) [Compound 35], for which, in series [1], the IC50 is under 100 nM. Moreover, the half-life at 1 μM in series [3] is over 120 min; in series [5], under 20 min.
In the same order, the values of `COCCOC(=O)c1cccc(C(=O)Nc2cccc(CNC3CCC(Nc4cccc5cnccc45)CC3)c2)c1` (stereo not shown) [Compound 28] are under 100 nM, over 120 min and under 20 min.
As for `O=C(O)c1ccc(C(=O)Nc2cccc(CNC3CCC(Nc4cccc5cnccc45)CC3)c2)cc1` (stereo not shown) [Met1], the “difference in EC50 values between compound 32 and its metabolite Met1” value in series [2] (MLC phosphorylation assay, FIG. 1, Met1 versus parent compound 32) is given as over 20 fold.
In series [1], `O=C(Nc1cccc(CN2CCC(Nc3cccc4cnccc34)C2)c1)c1cccc(C(=O)OCC2CCCO2)c1` (stereo not shown) [Compound 23] had an IC50 of under 100 nM. Moreover, the half-life at 1 μM in series [3] was 77 min; in series [4], under 20 min; in series [5], under 20 min.
Turning to `COC(=O)c1ccc(C(=O)Nc2cc(CN3CCCC(Nc4ccc5[nH]ncc5c4)C3)ccc2C)cc1` (stereo not shown) [Compound 15], the half-life at 1 μM in series [3] was over 120 min.
In the case of `CCCOC(=O)c1cccc(C(=O)Nc2cccc(CN3CCC(Nc4cccc5cnccc45)C3)c2)c1` (stereo not shown) [Compound 21], the IC50 in series [1] was under 100 nM. Besides, the EC50 in series [2] is under 300 nM. Further, the results for the half-life at 1 μM in series [3], in series [4] and in series [5] were 120 min, under 20 min and under 20 min, respectively.
In series [1], `O=C(Nc1cccc(CN2CCC(Nc3cccc4cnccc34)C2)c1)c1ccc(C(=O)OCC2CCCO2)cc1` (stereo not shown) [Compound 26] had an IC50 of under 100 nM.
In the case of `CCCOC(=O)c1ccc(C(=O)Nc2cccc(CN3CCC(Nc4cccc5cnccc45)C3)c2)cc1` (stereo not shown) [Compound 24], the IC50 in series [1] was under 100 nM. The EC50 in series [2] was under 300 nM.
Regarding `CCCOC(=O)c1ccc(C(=O)Nc2cccc(CNC3CCC(Nc4cccc5cnccc45)CC3)c2)cc1` (stereo not shown) [Compound 30], the IC50 in series [1] is under 100 nM.
In turn, `COC(=O)c1ccc(C(=O)Nc2cccc(CNC3CCC(Nc4cccc5cnccc45)CC3)c2)cc1` (stereo not shown) [Compound 17] came in with an IC50 in series [1] of under 100 nM.
On the same count and under the same terms, as for `COCCOC(=O)c1ccc(C(=O)Nc2cccc(CN3CCC(Nc4cccc5cnccc45)C3)c2)cc1` (stereo not shown) [Compound 25], the figure is under 100 nM.
Regarding `COCCOC(=O)c1cccc(C(=O)Nc2cccc(CN3CCC(Nc4cccc5cnccc45)CC3)c2)c1` [Compound 34], the IC50 in series [1] is under 100 nM. Moreover, in series [2], the EC50 fell in the range of 300 to 1000 nM. In addition, the half-life at 1 μM in series [3] is over 120 min; in series [5], under 20 min.
Take `O=S(=O)(c1cccc2cnccc12)N1CCCNCC1` [Fasudil, reference compound]: in series [2], the EC50 lay within 1000 to 10000 nM.
The molecule `CCCOC(=O)c1cccc(C(=O)Nc2cccc(CNC3CCC(Nc4cccc5cnccc45)CC3)c2)c1` (stereo not shown) [Compound 27] returned an IC50 in series [1] of under 100 nM. Also, the half-life at 1 μM was over 120 min in series [3] and under 20 min in series [5].
As to `O=C(Nc1cccc(CNC2CCC(Nc3cccc4cnccc34)CC2)c1)c1ccc(C(=O)OCC2CCCO2)cc1` (stereo not shown) [Compound 32], the IC50 in series [1] was under 100 nM. This molecule yielded an EC50 in series [2] of 300 to 1000 nM. In addition, in series [5], the half-life at 1 μM was determined as 20 min.
Turning to `COCCOC(=O)c1ccc(C(=O)Nc2cccc(CNC3CCC(Nc4cccc5cnccc45)CC3)c2)cc1` (stereo not shown) [Compound 31], the IC50 in series [1] is under 100 nM.
As for `COC(=O)c1cccc(C(=O)Nc2cccc(CN3CCC(Nc4cccc5cnccc45)CC3)c2)c1` [Compound 18], the IC50 in series [1] was under 100 nM.

Broadly, the IC50 is the concentration that gives 50% inhibition. Low values mean greater potency in that assay, high ones weaker potency in that assay. By EC50 is commonly meant the concentration giving half of the maximal effect. Read a high EC50 as a less potent agent.
